The results in this text go back to patent US6420424B1, “CCR-3 receptor antagonists” (SmithKline Beecham Corporation, priority 1998, dated 2002).

Each structure is given as a SMILES string.

One may read the melting point as the temperature of the solid-liquid transition. Regarding `CCOC(=O)[C@H](Cc1ccc(N)cc1)NC(=O)c1ccccc1` [Example 6, (S)-Ethyl-2-benzoylamino-3-(4-aminophenyl)propionate], the melting point was in the range of 120 to 122 °C.
